Values joined by “and” are separate entries in the source; they are usually repeats but may differ in a detail not shown here. Equal values may be shown once.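 Briefly, cells in 96-well plates were exposed to five compound concentrations for 48 h, and endpoints were estimated by linear interpolation. GI50 = concentration required for 50% inhibition of growth. TGI denotes the concentration required for complete inhibition of growth.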
What was measured:
Experiment in all cases: inhibition of tumour cell growth, NCI panel, 48 h
NCI/ADR-RES ovarian = test system: NCI/ADR-RES ovarian
T-47D breast = test system: T-47D breast
COLO 205 colon = test system: COLO 205 colon
SR leukemia = test system: SR leukemia
SN12C renal = test system: SN12C renal
A498 renal = test system: A498 renal
SK-MEL-2 melanoma = test system: SK-MEL-2 melanoma
HT29 colon = test system: HT29 colon
HOP-62 NSCLC = test system: HOP-62 NSCLC
BT-549 breast = test system: BT-549 breast

Compound	TGI (NCI/ADR-RES ovarian)	TGI (T-47D breast)	TGI (COLO 205 colon)	TGI (SR leukemia)	TGI (SN12C renal)	TGI (A498 renal)	TGI (SK-MEL-2 melanoma)	TGI (HT29 colon)	TGI (HOP-62 NSCLC)	TGI (BT-549 breast)	GI50 (NCI/ADR-RES ovarian)	GI50 (COLO 205 colon)	GI50 (SN12C renal)	GI50 (SK-MEL-2 melanoma)	GI50 (HT29 colon)	GI50 (HOP-62 NSCLC)	GI50 (BT-549 breast)
O=C1C=C(NCCc2ccc(O)cc2)C(=O)C=C1NCCc1ccc(O)cc1	> 100 µM	> 100 µM	> 100 µM	> 100 µM	> 100 µM	> 100 µM	> 100 µM	> 100 µM	> 100 µM	> 100 µM	–	–	–	–	–	–	–
COc1ccc(/C=C/C(=O)N[C@@H]2C(=O)N3[C@@H]2SC(C)(C)[C@@H]3C(=O)O)cc1OC	> 100 µM	> 100 µM	> 100 µM	> 100 µM	> 100 µM	> 100 µM	> 100 µM	> 100 µM	> 100 µM	> 100 µM	–	–	–	–	–	–	–
CCCCCC(=O)OC[n+]1ccc(-c2c(COC(=O)NC(C)C)c(COC(=O)NC(C)C)c3n2CCC3)cc1	> 100 µM	> 100 µM	> 100 µM	> 80.9 µM	> 100 µM	> 100 µM	> 100 µM	> 100 µM	> 100 µM	> 100 µM	–	–	–	–	–	–	–
CN1CCN2CCN(C)CCN(CC1)CC2	> 100 µM	> 100 µM	> 100 µM	> 100 µM	> 100 µM	> 100 µM	> 100 µM	> 100 µM	> 100 µM	> 100 µM	–	–	–	–	–	–	–
O=C1CSC2(CC(/C=C/c3ccccc3[N+](=O)[O-])=NN2c2cccc(S(=O)(=O)O)c2)N1c1nc2ccccc2s1 (stereo not drawn)	50.7 µM	30.6 µM	> 75 µM	63.1 µM	54.9 µM	38.7 µM	35.4 µM	69.1 µM	–	33.1 µM	–	–	–	–	–	–	–
O=C(O)COc1cccc2ccccc(=O)c12	> 100 µM	> 100 µM	> 100 µM	> 100 µM	> 100 µM	> 100 µM	> 100 µM	> 100 µM	> 100 µM	> 100 µM	–	–	–	–	–	–	–
C[C@H](OC(=O)/C=C/c1ccc(O)c(O)c1)[C@H](C)OC(=O)/C=C/c1ccc(O)c(O)c1	63.1 µM	> 100 µM	50.3 µM	> 100 µM	34 µM	51.7 µM	50.3 µM	> 100 µM	26.6 µM	24.1 µM	–	–	–	–	–	–	–
CCN(CC)CCCNc1c2cc(OC)ccc2nc2cccc([N+](=O)[O-])c12	1.51 µM	0.618 µM	0.102 µM	0.061 µM	0.402 µM	0.0647 µM	0.32 µM	0.453 µM	0.412 µM	0.49 µM	–	–	–	–	–	–	–
COC(=O)/C=C/c1cc(OC)c2c(c1)C(C(=O)OC)C(c1ccc(O)c(OC)c1)O2 (stereo not drawn)	> 33.9 µM and 26.6 µM and 12.9 µM	> 100 µM and 31.9 µM and > 57.6 µM	35.4 µM and 26.4 µM and 25.8 µM	> 25.7 µM and 3.91 µM	> 100 µM	> 65.4 µM and > 100 µM and 77.3 µM	> 82.2 µM	37.8 µM and 26.8 µM and 14.4 µM	> 100 µM	> 42.3 µM and 18.9 µM and > 90.5 µM	3.4 µM and 2.76 µM and 1.68 µM	17 µM and 13.1 µM and 7.32 µM	13.9 µM and 9.44 µM and 4.63 µM	3.16 µM and 3.87 µM and 9.94 µM	16 µM and 9.17 µM and 3.77 µM	12 µM and 5.12 µM and 7.2 µM	4.54 µM and 1.87 µM and 18.2 µM
ClC1(Cl)C2CCOC21n1cnc2ccccc21 (stereo not drawn)	> 100 µM	> 100 µM	> 100 µM	> 100 µM	> 100 µM	–	> 100 µM	> 100 µM	> 100 µM	> 100 µM	–	–	–	–	–	–	–
C=C(C)[C@H]1C=C[C@@H](OC(C)=O)[C@@]2(COC(C)=O)[C@H](OC(=O)CCC)[C@H]3[C@@H](OC(C)=O)[C@@H](C)C[C@]3(O)C(=O)[C@@](C)(OC(C)=O)[C@H]12	> 100 µM	89.7 µM	65 µM	> 100 µM	> 100 µM	> 100 µM	> 100 µM	> 100 µM	–	> 100 µM	–	–	–	–	–	–	–
CC(=O)Oc1ccc(C2SCc3nc4ccccc4n32)cc1 (stereo not drawn)	51.6 µM	> 100 µM	56.3 µM	> 73 µM	> 100 µM	73.8 µM	80.2 µM	> 100 µM	> 100 µM	> 53.3 µM	–	–	–	–	–	–	–
CC(C)N=C(NC#N)NS(=O)(=O)c1cnccc1NC1CCCCCCC1	> 100 µM	> 100 µM	> 100 µM	> 100 µM	> 100 µM	> 100 µM	> 100 µM	> 100 µM	> 100 µM	> 100 µM	–	–	–	–	–	–	–
O=C1N(c2ccccc2)N=C2c3ccncc3C3=NN(c4ccccc4)C(=O)C123 (stereo not drawn)	> 100 µM	> 100 µM	6.12 µM	> 100 µM	> 100 µM	> 100 µM	> 100 µM	> 100 µM	> 100 µM	> 100 µM	–	–	–	–	–	–	–
CCOC(=O)C1=CN(Cc2ccccc2)C2ON=C(c3ccc(Cl)cc3)C2C1 (stereo not drawn)	> 72.3 µM	15.2 µM	> 64.1 µM	97.4 µM	> 65.4 µM	> 56.8 µM	38.6 µM	> 71.4 µM	> 67.7 µM	> 56.4 µM	–	–	–	–	–	–	–
CCOC(=O)CCNC(=O)c1cc(C)cc2c1Oc1c(cc(C)cc1C(=O)NCCC(=O)OCC)S2	> 100 µM	> 100 µM	> 100 µM	> 100 µM	> 100 µM	90.8 µM	> 100 µM	> 100 µM	> 100 µM	> 100 µM	–	–	–	–	–	–	–
COc1ccc(-c2nc3ccccc3c(=O)[nH]2)cc1OC	> 100 µM	> 100 µM	> 100 µM	> 100 µM	> 100 µM	–	> 100 µM	> 100 µM	> 100 µM	> 100 µM	–	–	–	–	–	–	–
